From ChEMBL document CHEMBL1135480, “Design and quantitative structure-activity relationship of 3-amidinobenzyl-1H-indole-2-carboxamides as potent, nonchiral, and selective inhibitors of blood coagulation factor Xa” (J Med Chem, 2002) come the findings set out here.

The assay concerns the target Coagulation factor X (Homo sapiens, UniProt P00742). The assay is described as follows: Inhibition of Coagulation factor Xa.

The Ki is the dissociation constant of the complex between target and ligand, obtained from inhibition or displacement.

Where “and” joins values, the source holds several entries; their conditions need not be identical. Equal values may be shown once.

Chain of Coagulation factor X (P00742 41-179 limits assumed): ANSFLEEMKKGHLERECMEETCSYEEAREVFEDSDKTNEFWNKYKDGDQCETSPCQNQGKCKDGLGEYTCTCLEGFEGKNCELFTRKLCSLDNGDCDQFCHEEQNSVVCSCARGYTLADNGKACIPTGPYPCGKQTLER
Chain of Coagulation factor X (P00742 235-488 limits assumed): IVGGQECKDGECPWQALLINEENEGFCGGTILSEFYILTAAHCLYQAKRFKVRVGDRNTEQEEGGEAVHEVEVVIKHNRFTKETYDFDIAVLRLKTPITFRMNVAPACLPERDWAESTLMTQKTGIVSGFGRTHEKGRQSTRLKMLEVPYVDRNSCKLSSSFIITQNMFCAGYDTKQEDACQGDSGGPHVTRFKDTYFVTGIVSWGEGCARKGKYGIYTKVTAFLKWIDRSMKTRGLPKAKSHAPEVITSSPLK

In the case of `N=C(N)c1cccc(Cn2c(C(=O)NCc3cccc(C(=O)O)c3)cc3c(O)cccc32)c1`, the inhibition constant Ki came to 10000 nM.
The molecule `N=C(N)c1cccc(Cn2c(C(=O)NCc3cc(F)cc(F)c3)cc3c(O)cccc32)c1` returned an inhibition constant (Ki) of 191 nM.
Molecule `N=C(N)c1cccc(Cn2c(C(=O)NCCc3ccc(Cl)cc3)cc3c(O)cccc32)c1` had an inhibitory constant (Ki) of 1560 nM.
The same measure for `Cc1cccc2c1cc(C(=O)OCc1cccc(C(=N)N)c1)n2Cc1cccc(C(=N)N)c1`: 44 nM.
`N=C(N)c1cccc(Cn2c(C(=O)NCc3ccc(Cl)cc3)cc3ccccc32)c1` gave a Ki of 3600 nM.
For `Cc1cccc2c1cc(C(N)=O)n2Cc1cccc(C(=N)N)c1`, the affinity, expressed as Ki, was 7910 nM.
`COc1ccc2c(cc(C(=O)NCc3ccncc3)n2Cc2cccc(C(=N)N)c2)c1OC` yielded a Ki of 5310 nM.
The same measure for `Cc1cccc2c1cc(C(=O)NCC1CCC(C(=N)N)CC1)n2Cc1cccc(C(=N)N)c1` (stereo not given): 45 nM; for `N=C(N)c1cccc(Cn2c(C(N)=O)cc3ccccc32)c1`: 5650 nM.
The molecule `C=CC[N+](C)(C)c1ccc(CNC(=O)c2cc3cc(F)ccc3n2Cc2cccc(C(=N)N)c2)cc1` returned a Ki of 141 nM.
Take `COc1cc(CNC(=O)c2cc3c(O)cccc3n2Cc2cccc(C(=N)N)c2)cc(OC)c1`: the inhibitory constant (Ki) is 193 nM.
The same measure for `CCN(Cc1cc[n+](C)cc1)C(=O)c1cc2ccccc2n1Cc1cccc(C(=N)N)c1`: 500 nM.
Turning to `Cc1cccc2c1cc(C(=O)NCc1ccc([N+](C)(C)C)cc1)n2Cc1cccc(C(=N)N)c1`, the Ki is 16 nM and 14 nM.
Turning to `C[N+](C)(C)c1ccc(CNC(=O)c2cc3cc(F)ccc3n2Cc2cccc(C(=N)N)c2)cc1`, the inhibition constant (Ki) is 66 nM and 90 nM.
The same measure for `N=C(N)c1cccc(Cn2c(C(=O)NCCc3ccc(Cl)cc3Cl)cc3c(O)cccc32)c1`: 840 nM; for `Cc1cccc2c1cc(C(=O)NCc1ccc(O)cc1)n2Cc1cccc(C(=N)N)c1`: 1610 nM; for `CC(NC(=O)c1cc2ccccc2n1Cc1cccc(C(=N)N)c1)c1cc[n+](C)cc1` (stereo not given): 92 nM.
The value for `N=C(N)c1cccc(Cn2c(C(=O)NCCc3ccc(Br)cc3)cc3c(O)cccc32)c1` was 1630 nM; that for `C[n+]1ccc(CNC(=O)c2cc3c(O)cccc3n2Cc2cccc(C(=N)N)c2)c2ccccc21` was 50 nM.
The same measure for `N=C(N)c1cccc(Cn2c(C(=O)NCc3ccc4ccc5cccc6ccc3c4c56)cc3c(O)cccc32)c1`: 2060 nM.
`Cc1cccc2c1cc(C(=O)NCc1cc[n+]([O-])cc1)n2Cc1cccc(C(=N)N)c1`: the inhibitory constant (Ki) worked out at 14500 nM.
The value for `Cc1cccc2c1cc(C(=O)NCc1cccc3ccccc13)n2Cc1cccc(C(=N)N)c1` was 96 nM.
The same measure for `N=C(N)c1cccc(Cn2c(C(=O)NCc3cccc4ccccc34)c(Cl)c3ccccc32)c1`: 304 nM; for `N=C(N)c1cccc(CNC(=O)c2cc3cc(O)ccc3n2Cc2cccc(C(=N)N)c2)c1`: 77 nM; for `N=C(N)c1cccc(Cn2c(C(=O)NNS(=O)(=O)c3ccccc3)cc3c(O)cccc32)c1`: 7050 nM.
The value for `COc1cccc2c1cc(C(=O)NCCc1ccc(O)cc1)n2Cc1cccc(C(=N)N)c1` was 970 nM; that for `COc1cccc2c1cc(C(=O)NC(c1ccccc1)c1ccncc1)n2Cc1cccc(C(=N)N)c1` (stereo not given) was 6790 nM; that for `C[N+](C)(C)c1ccc(CNC(=O)c2cc3ccccc3n2Cc2cccc(C(=N)N)c2)cc1` was 400 nM.
In the case of `C[C@H](NC(=O)c1cc2cc(OCc3ccccc3)ccc2n1Cc1cccc(C(=N)S)c1)c1ccccc1`, the inhibitory constant (Ki) came out at 4830 nM.
Molecule `N=C(N)c1cccc(Cn2c(C(=O)NCC(=O)Nc3ccc4ccccc4c3)cc3c(O)cccc32)c1` came in with a Ki of 2380 nM.
Take `N=C(N)c1cccc(CNC(=O)c2cc3ccccc3n2Cc2cccc(C(=N)N)c2)c1`: the Ki was 26 nM and 19 nM.
`N=C(N)c1cccc(Cn2c(C(=O)NC(c3ccccc3)c3ccncc3)cc3ccccc32)c1` (stereo not given) displayed a Ki of 7030 nM.
The same measure for `C[N+](C)(C)c1ccc(CNC(=O)c2cc3c(Br)cccc3n2Cc2cccc(C(=N)N)c2)cc1`: 24 nM.
With `N=C(N)c1cccc(Cn2c(C(=O)NCc3cccc(Br)c3)cc3c(O)cccc32)c1`, the affinity, expressed as Ki, was 117 nM.
`C[N+](C)(C)c1ccc(CNC(=O)c2cc3cc(S(C)(=O)=O)ccc3n2Cc2cccc(C(=N)N)c2)cc1` showed an inhibition constant (Ki) of 226 nM.
`N=C(N)c1cccc(COC(=O)c2cc3cc(OCc4ccccc4)ccc3n2Cc2cccc(C(=N)N)c2)c1`: affinity was put at a Ki of 61 nM.
Molecule `C[n+]1ccc(CNC(=O)c2cc3cc(F)ccc3n2Cc2cccc(C(=N)N)c2)cc1` registered a Ki of 360 nM.
Regarding `COc1ccc2c(c1)cc(C(=O)NCc1ccc([N+](C)(C)C)cc1)n2Cc1cccc(C(=N)N)c1`, the inhibition constant Ki worked out at 94 nM.
In turn, `N=C(N)c1cccc(Cn2c(C(=O)NCc3ccccc3)cc3c(O)cccc32)c1` returned a Ki of 2030 nM.
The molecule `N=C(N)c1cccc(Cn2c(C(=O)NCCNc3cccc4ccccc34)cc3c(O)cccc32)c1` registered a Ki of 318 nM.
Take `Cc1cccc2c1cc(C(=O)NCC1CCN(C(=N)N)CC1)n2Cc1cccc(C(=N)N)c1`: the Ki is 25 nM.
For the molecule `C[N+](C)(C)c1ccc(CNC(=O)c2cc3c(OCc4ccccc4)cccc3n2Cc2cccc(C(=N)N)c2)cc1`, the Ki is 84 nM.
The molecule `N=C(N)c1cccc(Cn2c(C(=O)NCc3ccc4ccccc4c3)cc3c(O)cccc32)c1` displayed a Ki of 1720 nM.
As for `COc1ccc2cc(C(=O)NCc3ccc([N+](C)(C)C)cc3)n(Cc3cccc(C(=N)N)c3)c2c1`, the inhibitory constant (Ki) was 1760 nM.
`C[N+](C)(C)c1ccc(CNC(=O)c2cn(Cc3cccc(C(=N)N)c3)c3ccccc23)cc1`: the Ki was found to be 1820 nM.
Take `C[N+]1(C)CCC(C(NC(=O)c2cc3ccccc3n2Cc2cccc(C(=N)N)c2)c2ccc3cc(Cl)ccc3c2)CC1` (stereo not given): affinity was put at a Ki of 1310 nM.
The value for `N=C(N)c1ccc(CNC(=O)c2cn(Cc3cccc(C(=N)N)c3)c3ccccc23)cc1` was 1120 nM; that for `Cc1cccc2c1cc(C(=O)NCc1ccnc3ccccc13)n2Cc1cccc(C(=N)N)c1` was 173 nM.
The same measure for `CN(C)c1ccc(CNC(=O)c2cc3cc(F)ccc3n2Cc2cccc(C(=N)N)c2)cc1`: 3520 nM; for `Cc1cccc2c1cc(C(=O)NCc1cccc(-c3ccccc3)c1)n2Cc1cccc(C(=N)N)c1`: 325 nM.
`C[n+]1ccc(CNC(=O)c2cc3ccccc3n2Cc2ccc(C(=N)N)cc2)cc1` gave an inhibition constant (Ki) of 600 nM.
Consider `Cc1c(C(=O)NCc2cc[n+](C)cc2)n(Cc2cccc(C(=N)N)c2)c2ccccc12`, for which the Ki worked out at 170 nM.
The value for `N=C(N)c1cccc(Cn2c(C(N)=O)cc3c(O)cccc32)c1` was 7160 nM; that for `N=C(N)c1cccc(CNC(=O)c2cc3cc(OCc4ccccc4)ccc3n2Cc2cccc(C(=N)N)c2)c1` was 133 nM; that for `N=C(N)c1cccc(CNC(=O)c2cn(Cc3cccc(C(=N)N)c3)c3ccccc23)c1` was 1230 nM.
With `CCOC(=O)c1cc2ccccc2n1Cc1cccc(C(=N)N)c1`, affinity was put at a Ki of 4200 nM.
`C[N+](C)(C)c1ccc(CNC(=O)c2cc3cc([N+](=O)[O-])ccc3n2Cc2cccc(C(=N)N)c2)cc1`: the Ki is 144 nM.
Take `COC(=O)c1c(C)c2ccccc2n1Cc1cccc(C(=N)N)c1`: affinity was put at a Ki of 8800 nM.
`COC(=O)c1c(C(=O)OC)n(Cc2cccc(C(=N)N)c2)c2ccccc12`: the affinity, expressed as Ki, was 7500 nM.
`COc1cccc2c1cc(C(=O)NCc1ccc([N+](C)(C)C)cc1)n2Cc1cccc(C(=N)N)c1` registered a Ki of 62 nM.
